Holding throughout (format): cell-based, human
Series [1] deals with A2780/AD cells. In words: MTT cell cytotoxicity, drug-resistant A2780/AD cells. Conditions: DOX equivalent 5 μg/ml, 48 hours, pH 7.4. The method, then: (§1) A2780 and A2780/AD cells suspended in RPMI 1640 medium (200 μl) were seeded in a 96-well plate and cultured for 24 hours before testing. Free DOX (5 μg/ml) or equivalent DOX-loaded samples (virogels and control NPs) were added to the medium-removed 96-well plate for cell cytotoxicity tests. The pH of the culture medium was adjusted to pH 7.4 or pH 6.8 for 48 hours during the test, as described in A. Patchornik et al., supra. Cell cytotoxicity was measured using the tetrazolium salt MTT assay. E. S. Lee, K. Na & Y. H. Bae, 5 Nano Lett. 325-329 (2005); E. S. Lee, K. Na & Y. H. Bae, 103 J. Control. Release 405-418 (2005).

A further series relates to A2780 cells. Briefly: MTT cell cytotoxicity, A2780 cells. Conditions: drug-sensitive A2780; DOX equivalent 5 μg/ml; 48 hours; pH 7.4. The method, then:
as §1

For series [2], the system named is A2780/AD cells. Briefly: Migration to neighboring cells in co-culture (confocal slice images). Conditions: for secondary infection of co-cultured untreated cells: 20 hours co-culture. The method, then:
Experiments were conducted to verify migration of virogels to neighboring cells. Cells grown on glass slide fragments (“plates”) (1×1 cm) were pre-treated with free DOX (10 μg/ml) or equivalent DOX-loaded virogels or NPs (controls), E. S. Lee, K. Na & Y. H. Bae, Polymeric micelle for tumor pH and folate-mediated targeting, 91 J. Control. Release 103-113 (2003)) for 4 hours. These pretreated cells (A cells) were washed with PBS (pH 7.4) and co-cultured with fresh cells (B-0 cells) on new glass slide fragments for 20 hours in fresh culture medium. Co-culturing was carried out by placing a plate containing A cells and a plate containing B-0 cells next to each other, but separated by 1 mm, in a culture dish such that the A cells and B-0 cells continuously shared fresh culture medium. The A cells served as a potential source for migration of virogels, and the B-0 cells were a potential site for secondary virogel infection.
After the B-0 cells were co-cultured with A cells for 20 hours, such B-0 cells were redesignated as B-1 cells. B-1 cells were then withdrawn from the culture dish and were co-cultured with fresh cells on new glass slide fragments for 20 hours in fresh culture medium. These fresh cells that had been co-cultured with B-1 cells were termed B-2 cells. These B-2 cells were then also withdrawn and co-cultured with fresh cells on new glass slide fragments for 20 hours in fresh culture medium. These fresh cells that had been co-cultured with B-2 cells were termed B-3 cells. Confocal slice images were obtained, as described above, for observing fluorescent DOX in cells. To evaluate the effect of DOX on virogel migration, blank virogels (50 μg/ml) were tested using the same procedure. FITC-labeling (Example 2) was used to visualize the blank virogels.

What is called viability is a per cent measure of how many cells are alive, often set against a control. For the compound `COc1cccc2c1C(=O)c1c(O)c3c(c(O)c1C2=O)C[C@@](O)(C(=O)CO)C[C@@H]3O[C@H]1C[C@H](N)[C@H](O)[C@H](C)O1` [free DOX, doxorubicin], the viability worked out at 80% with A2780/AD cells [1] and 30% with A2780 cells. Further, in the series on A2780/AD cells [2] (4 hours pre-treatment, DOX 10 μg/ml equivalent (blank virogels 50 μg/ml, FITC)), the “distribution of fluorescence within primary treated cells (A cells)” value is given as “only limited fractions of DOX diffusing into cells”. Besides, the “migration from infected A2780/AD cells to untreated cells” value in the series on A2780/AD cells [2] (FIG. 7 legend, overall) is recorded as “no such migration”. For the same compound, the “secondary infection of co-cultured untreated cells” value was “No further cell effects” with A2780/AD cells [2] (first cycle, B-1 cells); “No further cell effects” with A2780/AD cells [2] (second cycle, B-2 cells); “No further cell effects” in the series with A2780/AD cells [2] (third cycle, B-3 cells).
